In patent US11760984B2, “CRISPR protein inhibitors” (THE BROAD INSTITUTE, INC., priority 2017, dated 2023):

How the values were obtained:
[1] = molecular target: T1, dCas9-cytidine deaminase conjugate (BE3) (UniProt P14739+P38483+Q99ZW2, D10A); experiment: BE3 base-editing of EMX1 gene in HEK293T cells; format: cell-based; settings: 1.25-20 μM, 72 h
T1 construct: made in house; host or cells: E. coli BL21 Star (DE3); purified protein:sgRNA complex lipofected into HEK293T cells
Description: Protein transfection of base editor BE3 into HEK293T cells. HEK293T cells were seeded on 48-well BioCoat poly-D-lysine plates (Corning) in 250 μL of antibiotic-free medium and transfected at ˜70% confluency. Prior to protein transfection, cells were incubated with 2 μL of DMSO-suspended BRD7087 or BRD5779 at the indicated concentration for 2-3 hours. BE3 protein was incubated with 1.1× molar excess of EMX1-targeting sgRNA at a final concentration ratio of 200 nM. 220 nM (based on a total well volume of 275 μL). The complex was mixed with 0.2 μL of compound for five minutes, incubated with 1.5 μL Lipofectamine 2000 (Thermo Fisher) and transfected according to the manufacturer's protocol plasmid delivery. […]
Purifications and sequencing of genomic DNA. […] Barcoded samples were pooled and purified by gel extraction (Qiagen) before quantification using the Qubit dsDNA HS Kit (Thermo Fisher) and qPCR (KAPA BioSystems) according to the manufacturer's instructions. Sequencing of pooled samples was performed using a single-end read from 260 to 300 bases on the MiSeq (Illumina) according to the manufacturer's instructions.
Analysis of base-edited sequences. Nucleotide frequencies were analyzed using a previously described MATLAB script 5. Briefly, the reads were aligned to the reference sequence via the Smith-Waterman algorithm. […]

SpCas9:gRNA complex = molecular target: T2, SpCas9:gRNA complex (Streptococcus pyogenes serotype M1, UniProt Q99ZW2); experiment: 19F NMR binding assay; settings: for Fractional Occupancy (1-Ibound/I0) / LW (linewidth of 19F signal): [Ligand] 50 μM
T2 construct: His6 (N, cleaved yes); made in house; host or cells: E. coli BL21 Star (DE3)
T2 sequence (Q99ZW2 whole entry, one chain of several): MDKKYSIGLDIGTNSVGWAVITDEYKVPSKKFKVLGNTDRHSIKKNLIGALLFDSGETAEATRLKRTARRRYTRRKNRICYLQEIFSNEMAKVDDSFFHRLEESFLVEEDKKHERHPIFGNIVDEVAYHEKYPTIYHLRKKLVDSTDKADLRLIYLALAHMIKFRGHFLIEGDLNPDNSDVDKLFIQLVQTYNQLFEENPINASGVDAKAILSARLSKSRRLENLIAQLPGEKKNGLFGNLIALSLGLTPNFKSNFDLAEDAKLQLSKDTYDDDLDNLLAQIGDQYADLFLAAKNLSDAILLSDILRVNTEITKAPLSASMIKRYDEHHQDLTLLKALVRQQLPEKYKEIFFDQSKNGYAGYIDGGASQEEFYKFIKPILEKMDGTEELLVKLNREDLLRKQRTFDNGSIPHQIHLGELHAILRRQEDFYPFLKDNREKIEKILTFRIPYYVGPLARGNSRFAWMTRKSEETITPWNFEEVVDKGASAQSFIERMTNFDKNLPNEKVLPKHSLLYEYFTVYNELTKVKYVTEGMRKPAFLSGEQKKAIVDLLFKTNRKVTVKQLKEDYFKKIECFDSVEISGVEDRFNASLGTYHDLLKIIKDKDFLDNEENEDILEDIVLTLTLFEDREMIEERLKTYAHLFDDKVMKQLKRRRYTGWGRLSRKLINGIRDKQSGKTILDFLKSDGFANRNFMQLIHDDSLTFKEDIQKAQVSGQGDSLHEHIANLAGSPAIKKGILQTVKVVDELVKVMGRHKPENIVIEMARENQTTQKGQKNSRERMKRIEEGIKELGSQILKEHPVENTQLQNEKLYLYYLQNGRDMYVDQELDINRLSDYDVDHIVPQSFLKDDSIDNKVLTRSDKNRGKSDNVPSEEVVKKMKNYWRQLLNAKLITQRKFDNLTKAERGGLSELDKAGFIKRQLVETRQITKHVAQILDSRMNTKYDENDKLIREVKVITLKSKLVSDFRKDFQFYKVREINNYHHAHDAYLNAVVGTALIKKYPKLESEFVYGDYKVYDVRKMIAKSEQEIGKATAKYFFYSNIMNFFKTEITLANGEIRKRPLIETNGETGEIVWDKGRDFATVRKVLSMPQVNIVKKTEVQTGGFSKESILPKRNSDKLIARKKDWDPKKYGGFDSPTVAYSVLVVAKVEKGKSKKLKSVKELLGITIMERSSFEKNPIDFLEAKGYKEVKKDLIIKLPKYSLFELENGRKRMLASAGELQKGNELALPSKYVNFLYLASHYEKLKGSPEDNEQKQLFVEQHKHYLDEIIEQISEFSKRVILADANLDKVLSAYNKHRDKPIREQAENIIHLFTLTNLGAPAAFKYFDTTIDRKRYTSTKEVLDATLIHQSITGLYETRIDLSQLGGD
Description: (§1) NMR binding assay. All samples were prepared with 50 μM BRD7087 in 20 mM Tris buffer (pH=7.4) with varying concentrations of SpCas9:gRNA in a 3 mm NMR tube. Experiments were performed on a 600 MHz (19F: 564.71 MHz) Bruker Avance III NMR spectrometer equipped with a 5 mm QCI-F CryoProbe and a SampleJet for automated sample handling. To acquire spectra, a standard one-pulse 19F experiment with WALTZ-16 for proton decoupling during acquisition, a 5 second recycle delay, and 256 scans was used. All spectra were recorded at 280 K. NMR data were apodized with a 1 Hz exponential function prior to Fourier transformation. All spectra were baseline corrected; peak widths and intensities were extracted using the automated line-fitting feature provided with the MNova software package. Determination of the value of Kd was accomplished using least squares fitting to the expression given in Equation 8 in the paper by Shortridge et al.2.
Kd values obtained by NMR rely on the assumption that ligand binding is in fast-exchange, which typically holds true for ligands with Kd in the 0.5 μM to 20 mM range.
as §1, with “(^19F:” for “(19F:”, “^19F” for “19F”, “al.^2.” for “al.2.”

SMILES	inhibition of BE3-mediated base-editing (C→T conversion, words) [1]	Kd (SpCas9:gRNA complex; 50 μM ligand, 20 mM Tris pH 7.4, 280 K, read-out: binding constant Kd (method of Shortridge et al., peak intensities)) [µM]	binding by differential line broadening of 19F signal (SpCas9:gRNA complex; 50 μM ligand, broadening from 0.75 μM SpCas9:gRNA)	Fractional Occupancy (1-Ibound/I0) (SpCas9:gRNA complex; [Protein:gRNA] 0.75 μM)	LW (linewidth of 19F signal) (SpCas9:gRNA complex; [Protein:gRNA] 0.75 μM) [Hz]	Fractional Occupancy (1-Ibound/I0) (SpCas9:gRNA complex; [Protein:gRNA] 1.0 μM)	LW (linewidth of 19F signal) (SpCas9:gRNA complex; [Protein:gRNA] 1.0 μM) [Hz]	Fractional Occupancy (1-Ibound/I0) (SpCas9:gRNA complex; [Protein:gRNA] 1.25 μM)	LW (linewidth of 19F signal) (SpCas9:gRNA complex; [Protein:gRNA] 1.25 μM) [Hz]	Fractional Occupancy (1-Ibound/I0) (SpCas9:gRNA complex; [Protein:gRNA] 1.5 μM)	LW (linewidth of 19F signal) (SpCas9:gRNA complex; [Protein:gRNA] 1.5 μM) [Hz]	Fractional Occupancy (1-Ibound/I0) (SpCas9:gRNA complex; [Protein:gRNA] 1.75 μM)	LW (linewidth of 19F signal) (SpCas9:gRNA complex; [Protein:gRNA] 1.75 μM) [Hz]
COc1ccc(-c2ccc3c(c2)[C@H]2[C@H](CCN2Cc2ccncc2)[C@@H](CO)N3)cc1 [BRD5779, ((3aR,4S,9bR)-8-(4-Methoxyphenyl)-1-(pyridin-4-ylmethyl)-2,3,3a,4,5,9b-hexahydro-1H-pyrrolo[3,2-c]quinolin-4-yl)methanol]	efficient and dose-dependent inhibition	–	–	–	–	–	–	–	–	–	–	–	–
OC[C@H]1Nc2ccc(-c3cccc(F)c3)cc2[C@H]2[C@@H]1CCN2Cc1ccncc1 [BRD7087, ((3aR,4S,9bR)-8-(3-Fluorophenyl)-1-(pyridin-4-ylmethyl)-2,3,3a,4,5,9b-hexahydro-1H-pyrrolo[3,2-c]quinolin-4-yl)methanol]	efficient and dose-dependent inhibition	~2.2	relatively tight binding	0.1307	4.3	0.1817	4.6	0.3042	5.3	0.3436	5.9	0.4015	6.3
